# In patent US6579883B1, “Fluorinated 3,4-dihydroquinoline derivatives used as NOS inhibitors” (Schering Aktiengesellschaft, priority 1998, dated 2003):
# Legend:
# [1] = biological target: bNOS (Homo sapiens, UniProt P29475); experiment: bNOS inhibition (method of Bredt and Snyder); type: biochemical; settings: Proc. Natl. Acad. Sci. USA (1989) 86, 9030-9033
# Source text: The NOS-inhibitory action of the compounds of Formula (I) and their physiologically compatible salts can be determined according to the methods by Bredt and Snyder in Proc. Natl. Acad. Sci. USA (1989) 86, 9030-9033.
IC50 [1] [nM],melting point [°C],Compound
590,–,"NC1=Nc2c(F)cccc2C2CCCC12F (centres unmarked) [Example 2, 4-amino-3a,6-difluoro-2,3,3a,9b-tetrahydro-1H-cyclopenta[c]quinoline]"
–,220,"NC1=Nc2ccc(Br)cc2C2CCCC12F (centres unmarked) [Example 3, 4-Amino-8-bromo-3a-fluoro-2,3,3a,9b-tetrahydro-1H-cyclopenta[c]quinoline]"
